Assay results: US12539292B2, “BRM targeting compounds and associated methods of use” (Arvinas Operations, Inc., priority 2018, dated 2026)
Read-outs that look alike come from different tables or passages of the source.

Biological target: T1, BRM (Homo sapiens, UniProt P51531)
T1 construct: In-Cell Western Screen of BRM Degradation in SW1573 Cells; endogenous in cells; host or cells: SW1573
Experiment: In-cell Western screen of BRM degradation in SW1573 cells (Dmax and DC50)
Assay type: cell-based
Conditions: for Dmax: SW1573, % degraded, when tested at the top concentration of between 0.3 and 10 μM, read-out: BRM Dmax (%); for DC50: read-out: BRM DC50
Summary of the method: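 Adherent SW1573 cultures exposed to test compounds for 18-20 h were processed for in-cell Western after PFA fixation and detergent permeabilization. BRM degradation was reported as Dmax and DC50.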

T1 sequence (P51531 whole entry): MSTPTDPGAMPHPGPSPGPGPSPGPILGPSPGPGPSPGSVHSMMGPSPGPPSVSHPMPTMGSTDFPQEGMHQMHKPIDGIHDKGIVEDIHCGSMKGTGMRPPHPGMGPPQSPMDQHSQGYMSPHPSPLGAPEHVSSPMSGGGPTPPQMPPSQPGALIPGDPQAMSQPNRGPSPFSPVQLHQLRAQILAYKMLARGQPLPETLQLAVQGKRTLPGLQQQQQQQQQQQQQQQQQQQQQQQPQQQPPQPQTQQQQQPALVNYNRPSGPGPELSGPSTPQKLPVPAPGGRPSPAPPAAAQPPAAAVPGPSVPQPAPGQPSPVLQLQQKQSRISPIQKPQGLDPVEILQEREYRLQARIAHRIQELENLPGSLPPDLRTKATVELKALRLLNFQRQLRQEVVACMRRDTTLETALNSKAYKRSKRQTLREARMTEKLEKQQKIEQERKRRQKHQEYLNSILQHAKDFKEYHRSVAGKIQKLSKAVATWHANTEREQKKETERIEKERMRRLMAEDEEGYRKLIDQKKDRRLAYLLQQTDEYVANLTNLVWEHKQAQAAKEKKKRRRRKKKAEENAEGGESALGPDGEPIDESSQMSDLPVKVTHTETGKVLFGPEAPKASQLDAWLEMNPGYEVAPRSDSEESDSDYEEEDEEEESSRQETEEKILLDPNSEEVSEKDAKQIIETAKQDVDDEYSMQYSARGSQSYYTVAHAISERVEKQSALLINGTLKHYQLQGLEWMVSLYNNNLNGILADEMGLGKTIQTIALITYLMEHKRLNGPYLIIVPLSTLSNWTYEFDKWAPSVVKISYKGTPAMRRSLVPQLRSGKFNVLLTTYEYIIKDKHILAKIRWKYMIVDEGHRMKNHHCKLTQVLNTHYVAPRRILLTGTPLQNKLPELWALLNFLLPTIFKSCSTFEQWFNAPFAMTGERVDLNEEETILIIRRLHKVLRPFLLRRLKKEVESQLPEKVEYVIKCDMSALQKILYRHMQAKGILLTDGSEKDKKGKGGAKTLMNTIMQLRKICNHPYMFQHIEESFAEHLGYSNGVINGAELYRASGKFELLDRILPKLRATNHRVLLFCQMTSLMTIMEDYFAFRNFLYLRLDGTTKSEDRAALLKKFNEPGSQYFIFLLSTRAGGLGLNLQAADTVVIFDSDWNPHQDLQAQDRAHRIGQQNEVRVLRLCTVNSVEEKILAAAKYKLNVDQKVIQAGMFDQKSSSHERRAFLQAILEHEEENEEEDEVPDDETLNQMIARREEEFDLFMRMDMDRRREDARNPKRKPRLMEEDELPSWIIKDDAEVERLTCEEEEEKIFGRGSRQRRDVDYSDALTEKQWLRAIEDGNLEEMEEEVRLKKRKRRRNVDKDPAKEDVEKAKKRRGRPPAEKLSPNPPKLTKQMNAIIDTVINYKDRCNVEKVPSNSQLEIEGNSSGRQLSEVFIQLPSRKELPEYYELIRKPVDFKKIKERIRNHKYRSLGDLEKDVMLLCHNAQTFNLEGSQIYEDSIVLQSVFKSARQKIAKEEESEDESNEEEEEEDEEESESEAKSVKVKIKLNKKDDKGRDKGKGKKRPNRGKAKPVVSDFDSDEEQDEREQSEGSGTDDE

| SMILES | Dmax [%] | DC50 (target protein degradation) [nM] | DC50 (degradation of BRM) [nM] |
| --- | --- | --- | --- |
| Cc1nccn1-c1ccc([C@H](C)NC(=O)[C@@H]2C[C@@H](O)CN2C(=O)[C@@H](c2cc(OCCN3CCC(O[C@H]4C[C@H](Oc5cc(N6C7CCC6CN(c6cc(-c8ccccc8O)nnc6N)C7)ccn5)C4)CC3)no2)C(C)C)cn1 [compound 398, (2S,4R)-1-((2R)-2-(3-(2-(4-((1r,3R)-3-((4-(3-(3-amino-6-(2-hydroxyphenyl)pyridazin-4-yl)-3,8-diazabicyclo[3.2.1]octan-8-yl)pyridin-2-yl)oxy)cyclobutoxy)piperidin-1-yl)ethoxy)isoxazol-5-yl)-3-methylbutanoyl)-4-hydroxy-N-((S)-1-(6-(2-methyl-1H-imidazol-1-yl)pyridin-3-yl)ethyl)pyrrolidine-2-carboxamide] | > 75 | < 2.5 |  |
| Cc1ncsc1-c1ccc([C@H](C)NC(=O)[C@@H]2C[C@@H](O)CN2C(=O)[C@H](c2cc(OCC#Cc3ncc(O[C@H]4C[C@H](Oc5cc(N6C7CCC6CN(c6cc(-c8ccccc8O)nnc6N)C7)ccn5)C4)cn3)no2)C(C)C)cn1 [compound 399, (2S,4R)-1-((2S)-2-(3-((3-(5-((1r,3S)-3-((4-(3-(3-amino-6-(2-hydroxyphenyl)pyridazin-4-yl)-3,8-diazabicyclo[3.2.1]octan-8-yl)pyridin-2-yl)oxy)cyclobutoxy)pyrimidin-2-yl)prop-2-yn-1-yl)oxy)isoxazol-5-yl)-3-methylbutanoyl)-4-hydroxy-N-((S)-1-(6-(4-methylthiazol-5-yl)pyridin-3-yl)ethyl)pyrrolidine-2-carboxamide] |  | > 30 |  |
| Cc1ncsc1-c1ccc([C@H](C)NC(=O)[C@@H]2C[C@@H](O)CN2C(=O)[C@@H](c2cc(OCC#Cc3ncc(O[C@H]4C[C@H](Oc5cc(N6C7CCC6CN(c6cc(-c8ccccc8O)nnc6N)C7)ccn5)C4)cn3)no2)C(C)C)cn1 [compound 400, (2S,4R)-1-((2R)-2-(3-((3-(5-((1r,3R)-3-((4-(3-(3-amino-6-(2-hydroxyphenyl)pyridazin-4-yl)-3,8-diazabicyclo[3.2.1]octan-8-yl)pyridin-2-yl)oxy)cyclobutoxy)pyrimidin-2-yl)prop-2-yn-1-yl)oxy)isoxazol-5-yl)-3-methylbutanoyl)-4-hydroxy-N-((S)-1-(6-(4-methylthiazol-5-yl)pyridin-3-yl)ethyl)pyrrolidine-2-carboxamide] | > 75 | < 2.5 |  |
| Cc1ncsc1-c1ccc([C@H](C)NC(=O)[C@@H]2C[C@@H](O)CN2C(=O)[C@H](c2cc(N3CCN(CCN4CCC(O[C@H]5C[C@H](Oc6cc(N7C8CCC7CN(c7cc(-c9ccccc9O)nnc7N)C8)ccn6)C5)CC4)CC3)no2)C(C)C)cn1 [compound 401, (2S,4R)-1-((2S)-2-(3-(4-(2-(4-((1r,3r)-3-((4-(3-(3-amino-6-(2-hydroxyphenyl)pyridazin-4-yl)-3,8-diazabicyclo[3.2.1]octan-8-yl)pyridin-2-yl)oxy)cyclobutoxy)piperidin-1-yl)ethyl)piperazin-1-yl)isoxazol-5-yl)-3-methylbutanoyl)-4-hydroxy-N-((S)-1-(6-(4-methylthiazol-5-yl)pyridin-3-yl)ethyl)pyrrolidine-2-carboxamide] |  |  | > 30 |
| Cc1ncsc1-c1ccc([C@H](C)NC(=O)[C@@H]2C[C@@H](O)CN2C(=O)[C@@H](c2cc(N3CCN(CCN4CCC(O[C@H]5C[C@H](Oc6cc(N7C8CCC7CN(c7cc(-c9ccccc9O)nnc7N)C8)ccn6)C5)CC4)CC3)no2)C(C)C)cn1 [compound 402, (2S,4R)-1-((2R)-2-(3-(4-(2-(4-((1r,3r)-3-((4-(3-(3-amino-6-(2-hydroxyphenyl)pyridazin-4-yl)-3,8-diazabicyclo[3.2.1]octan-8-yl)pyridin-2-yl)oxy)cyclobutoxy)piperidin-1-yl)ethyl)piperazin-1-yl)isoxazol-5-yl)-3-methylbutanoyl)-4-hydroxy-N-((S)-1-(6-(4-methylthiazol-5-yl)pyridin-3-yl)ethyl)pyrrolidine-2-carboxamide] | > 75 |  | < 2.5 |
| Cc1ncsc1-c1ccc([C@H](C)NC(=O)[C@@H]2C[C@@H](O)CN2C(=O)[C@H](c2cc(N3CCC(O[C@H]4C[C@H](Oc5cc(N6C7CCC6CN(c6cc(-c8ccccc8O)nnc6N)C7)ccn5)C4)CC3)no2)C(C)C)cc1 [compound 403, (2S,4R)-1-((2S)-2-(3-(4-((1r,3S)-3-((4-(3-(3-amino-6-(2-hydroxyphenyl)pyridazin-4-yl)-3,8-diazabicyclo[3.2.1]octan-8-yl)pyridin-2-yl)oxy)cyclobutoxy)piperidin-1-yl)isoxazol-5-yl)-3-methylbutanoyl)-4-hydroxy-N-((S)-1-(4-(4-methylthiazol-5-yl)phenyl)ethyl)pyrrolidine-2-carboxamide] | > 75 |  | 2.5 to 10 |
| Cc1ncsc1-c1ccc([C@H](C)NC(=O)[C@@H]2C[C@@H](O)CN2C(=O)[C@@H](c2cc(N3CCC(O[C@H]4C[C@H](Oc5cc(N6C7CCC6CN(c6cc(-c8ccccc8O)nnc6N)C7)ccn5)C4)CC3)no2)C(C)C)cc1 [compound 404, (2S,4R)-1-((2R)-2-(3-(4-((1r,3R)-3-((4-(3-(3-amino-6-(2-hydroxyphenyl)pyridazin-4-yl)-3,8-diazabicyclo[3.2.1]octan-8-yl)pyridin-2-yl)oxy)cyclobutoxy)piperidin-1-yl)isoxazol-5-yl)-3-methylbutanoyl)-4-hydroxy-N-((S)-1-(4-(4-methylthiazol-5-yl)phenyl)ethyl)pyrrolidine-2-carboxamide] | > 75 |  | < 2.5 |
| Cc1ncsc1-c1ccc([C@H](C)NC(=O)[C@@H]2C[C@@H](O)CN2C(=O)[C@@H](c2cc(OCCN3CCC(C(=O)N4CC(Oc5cc(N6C7CCC6CN(c6cc(-c8ccccc8O)nnc6N)C7)ccn5)C4)CC3)no2)C(C)C)cc1 [compound 405, (2S,4R)-1-((2R)-2-(3-(2-(4-(3-((4-(3-(3-amino-6-(2-hydroxyphenyl)pyridazin-4-yl)-3,8-diazabicyclo[3.2.1]octan-8-yl)pyridin-2-yl)oxy)azetidine-1-carbonyl)piperidin-1-yl)ethoxy)isoxazol-5-yl)-3-methylbutanoyl)-4-hydroxy-N-((S)-1-(4-(4-methylthiazol-5-yl)phenyl)ethyl)pyrrolidine-2-carboxamide] | > 75 |  | < 2.5 |
| Cc1ncsc1-c1ccc([C@H](C)NC(=O)[C@@H]2C[C@@H](O)CN2C(=O)[C@@H](c2cc(OCCN3CCC(CN4CC(Oc5cc(N6C7CCC6CN(c6cc(-c8ccccc8O)nnc6N)C7)ccn5)C4)CC3)no2)C(C)C)cc1 [compound 406, (2S,4R)-1-((2R)-2-(3-(2-(4-((3-((4-(3-(3-amino-6-(2-hydroxyphenyl)pyridazin-4-yl)-3,8-diazabicyclo[3.2.1]octan-8-yl)pyridin-2-yl)oxy)azetidin-1-yl)methyl)piperidin-1-yl)ethoxy)isoxazol-5-yl)-3-methylbutanoyl)-4-hydroxy-N-((S)-1-(4-(4-methylthiazol-5-yl)phenyl)ethyl)pyrrolidine-2-carboxamide] |  |  | > 30 |
| Cc1ncsc1-c1ccc([C@H](C)NC(=O)[C@@H]2C[C@@H](O)CN2C(=O)[C@H](c2cc(OCCN3CCN(CCO[C@H]4C[C@H](Oc5cc(N6C7CCC6CN(c6cc(-c8ccccc8O)nnc6N)C7)ccn5)C4)CC3)no2)C(C)C)cc1 [compound 407, (2S,4R)-1-((2S)-2-(3-(2-(4-(2-((1r,3r)-3-((4-(3-(3-amino-6-(2-hydroxyphenyl)pyridazin-4-yl)-3,8-diazabicyclo[3.2.1]octan-8-yl)pyridin-2-yl)oxy)cyclobutoxy)ethyl)piperazin-1-yl)ethoxy)isoxazol-5-yl)-3-methylbutanoyl)-4-hydroxy-N-((S)-1-(4-(4-methylthiazol-5-yl)phenyl)ethyl)pyrrolidine-2-carboxamide] |  |  | > 30 |
| Cc1ncsc1-c1ccc([C@H](C)NC(=O)[C@@H]2C[C@@H](O)CN2C(=O)[C@@H](c2cc(OCCN3CCN(CCO[C@H]4C[C@H](Oc5cc(N6C7CCC6CN(c6cc(-c8ccccc8O)nnc6N)C7)ccn5)C4)CC3)no2)C(C)C)cc1 [compound 408, (2S,4R)-1-((2R)-2-(3-(2-(4-(2-((1r,3r)-3-((4-(3-(3-amino-6-(2-hydroxyphenyl)pyridazin-4-yl)-3,8-diazabicyclo[3.2.1]octan-8-yl)pyridin-2-yl)oxy)cyclobutoxy)ethyl)piperazin-1-yl)ethoxy)isoxazol-5-yl)-3-methylbutanoyl)-4-hydroxy-N-((S)-1-(4-(4-methylthiazol-5-yl)phenyl)ethyl)pyrrolidine-2-carboxamide] | > 75 |  | < 2.5 |
| CC(C)[C@H](C(=O)N1C[C@H](O)C[C@H]1C(=O)N[C@@H](C)c1ccc(-c2c(F)cnn2C)cc1)c1cc(OCCN2CCN(CCOc3cc(N4C5CCC4CN(c4cc(-c6ccccc6O)nnc4N)C5)ccn3)CC2)no1 [compound 409, (2S,4R)-1-((2S)-2-(3-(2-(4-(2-((4-(3-(3-amino-6-(2-hydroxyphenyl)pyridazin-4-yl)-3,8-diazabicyclo[3.2.1]octan-8-yl)pyridin-2-yl)oxy)ethyl)piperazin-1-yl)ethoxy)isoxazol-5-yl)-3-methylbutanoyl)-N-((S)-1-(4-(4-fluoro-1-methyl-1H-pyrazol-5-yl)phenyl)ethyl)-4-hydroxypyrrolidine-2-carboxamide] |  |  | > 30 |
| CC(C)[C@@H](C(=O)N1C[C@H](O)C[C@H]1C(=O)N[C@@H](C)c1ccc(-c2c(F)cnn2C)cc1)c1cc(OCCN2CCN(CCOc3cc(N4C5CCC4CN(c4cc(-c6ccccc6O)nnc4N)C5)ccn3)CC2)no1 [compound 410, (2S,4R)-1-((2R)-2-(3-(2-(4-(2-((4-(3-(3-amino-6-(2-hydroxyphenyl)pyridazin-4-yl)-3,8-diazabicyclo[3.2.1]octan-8-yl)pyridin-2-yl)oxy)ethyl)piperazin-1-yl)ethoxy)isoxazol-5-yl)-3-methylbutanoyl)-N-((S)-1-(4-(4-fluoro-1-methyl-1H-pyrazol-5-yl)phenyl)ethyl)-4-hydroxypyrrolidine-2-carboxamide] | > 75 |  | < 2.5 |
